Reference: patent US8057829B2, “Methods for repelling insects using sesquiterpene hydrocarbons and their derivatives” (Sterling International Inc., priority 2008, dated 2011)

How the values were obtained:
[1] = test system: antennae of housefly, sand fly, and mosquitoes (Aedes aegypti, Aedes increpitus, Anopheles gambiae); test: GC-EAD antennal responses to SPME samples of patchouli essential oil; conditions: component of patchouli essential oil SPME sample; response by one or more of the insects; FIG. 2
Protocol: (§1) The following procedures were employed to test the EAD response of an insect antenna to a repellent compound. The GC-EAD technique provides an efficient tool for screening behaviorally active repellents. Several synthetic mixtures of potential insect repellent candidates, mostly sesquiterpene hydrocarbons and derivatives, were analyzed in splitless mode using a Varian CP-3800 GC equipped with a polar column (Innowax; 1.0 μm film thickness, 30 m×0.53 mm ID; J & W Scientific), and a 1:1 effluent splitter that allowed simultaneous flame ionization detection (FID) and EAD of the separated volatile compounds. Helium was used as the carrier gas, and the injector temperature was 220° C. The column temperature was 50° C. for 2 min, rising to 240° C. at 10° C./min, then held for 10 min. The outlet for the EAD was held in a humidified air stream flowing at 0.5 liter/min. over an antennal preparation. A glass capillary indifferent electrode filled with Beadle-Ephrussi Ringer, and grounded via a silver wire, was inserted into the severed insect's head with the antennae. A similar recording electrode connected to a high-impedance DC amplifier with automatic baseline drift compensation was placed in contact with the distal end of one antenna (Zhang et al., Chemoecology, 10:69-80 (2000)). The antennal signals were stored and analyzed on a PC equipped with a serial IDAC interface box and the program EAD ver. 2.5 (Syntech, Hilversum, The Netherlands). The compound 1-octen-3-ol (known attractant for many flies and mosquitoes) was included in most of the synthetic mixtures, as a positive control.

[2] = test system: male false stable fly Muscina stabulans antenna and female mosquito Aedes (Ochlerotatus) increpitus Dyar antenna; test: GC-EAD responses of false stable fly and Aedes increpitus to a synthetic mixture; conditions: about 100 ng of each compound, FIG. 5
Protocol: The GC-EAD responses of the male false stable fly Muscina stabulans antenna and the female mosquito Aedes (Ochlerotatus) increpitus Dyar antenna were tested on a synthetic mixture of linalool and two representative sesquiterpene hydrocarbons, β-caryophyllene and α-humulene, and one sesquiterpene oxide, β-caryophyllene oxide, with about 100 ng of each compound in the mixture.
as §1, with “control. The results of the experiments are shown in FIGS. 1-10 and described above.” for “control.”

[3] = test system: antennae of Musca domestica, Lucillia sericata, Sarcophaga sp., Muscina stabulans, Culex pipiens, Aedes increpitus; test: GC-EAD responses of several flies and two mosquitoes to a synthetic mixture; conditions: about 100 ng of each compound, FIG. 6
Protocol: The GC-EAD responses of several species of flies and two species of mosquito antennae were tested on a synthetic mixture of 1-octen-3-ol, linalool, two representative sesquiterpene hydrocarbons, β-caryophyllene and α-humulene, ZE-nepetalactone, EZ-nepetalactone, and two known insect repellents, DEET, and SS220, with about 100 ng of each compound in the mixture. DEET and SS220 are used as positive controls in the experiment. The compound 1-octen-3-ol is a known attractant for the insects and is also used as a positive control. The insects tested are species of Musca domestica, Lucillia sericata, Sarcophaga sp., Muscina stabulans, Culex pipiens, and Aedes increpitus.
as §1, with “2.5 (Syntech, Hilversum, The Netherlands). The compound 1-octen-3-ol (known attractant for many flies and mosquitoes) was included in most of the synthetic mixtures, as a positive control.” left out

In the case of `C=C1CC/C=C(\C)CC[C@@H]2[C@@H]1CC2(C)C` [β-Caryophyllene, β-caryophyllene], the GC-EAD antennal activity [1] is reported as “elicited EAD-activity”, the GC-EAD antennal activity [2] is reported as “active on at least one of the insects tested” and the GC-EAD antennal activity [3] is reported as “active on at least one of the insects tested”.
